Assay results published in US8912169B2, “Beta-lactamase inhibitors” (VenatoRx Pharmaceuticals, Inc., priority 2012, dated 2014).

How the values were obtained:
Format in all cases: biochemical
SHV-5 = biological target: T1, SHV-5 (Klebsiella pneumoniae, UniProt P0A3M1); experiment: β-lactamase enzyme inhibition, SHV-5
T1 construct: made in house; host or cells: E. coli BL21(DE3)
Protocol: (§1) For SHV-5, Kpc-2, p99AmpC and OXA-1 β-lactamases, E. coli BL21(DE3) bacterial cells carrying expression plasmids (expressed as native untagged proteins) for the individual β-lactamases were grown in 1 L of Superbroth (Teknova Inc. Hollister, Calif.) supplemented with 100 μg/mlkanamycin selection and 1×5052 (0.5% glycerol, 0.05% glucose and 0.2% α-lactose) at 35° C. for 18-20 hours. Cells were harvested by centrifugation (4,000×g, 4° C., 20 min), resuspended in 50 ml of 10 mM HEPES pH 7.5 ( 1/20 of the initial volume). The cells were lysed by sonication (5 pulses of 45 seconds) at 45 W on ice. The lysates were clarified by centrifugation at 10,000×g for 40 minutes at 4° C. Samples were diluted 5-fold in 50 mM sodium acetate pH 5.0, stored overnight at 4° C., after which they were centrifuged at 10,000×g for 30 minutes to clarify, and filtered through 0.45 μm filters. The samples were loaded onto a 5 ml Capto S sepharose cation exchange column (GE Healthcare) pre-equilibrated with 50 mM sodium acetate pH 5.0. The column was washed with 5 column volumes of 50 mM sodium acetate pH 5.0 to wash out unbound protein and a linear gradient of NaCl (0 to 500 mM) was used to elute the protein (over 16 CV) from the column. Fractions were assayed for β-lactamase activity using Centa (Calbiochem, Gibbstown, N.J.) or Nitrocefin (EMD Millipore chemicals, Darmstadt, Germany) as a reporter β-lactamase substrate for activity in the isolated fractions. Active fractions were pooled, concentrated and further purified by gel filtration chromatography on a Superdex 75 prep grade gel filtration column (GE Healthcare, Piscataway, N.J.) pre-equilibrated in 50 mM Hepes pH 7.5, 150 mM NaCl. Active fractions were pooled concentrated, quantitated by BCA protein determination (Thermo Scientific, Rockford, Ill.), dialyzed into PBS and frozen at −80° C. in 20% glycerol until use.
(§2) An equal volume of diluted enzyme stock was added, and the plates were incubated at 37° C. for 15 min. Nitrocefin was used as substrate for p99 AmpC, VIM-2 and OXA-1 and dispensed into each well at a final concentration of 100 μM. Absorbance at 486 nm was immediately monitored for 10 min using a Biotek Powerwave XS2 microplate spectrophotometer using the GENS software package (Biotek Instruments, Winooski Vt.). In an analogous fashion, imipenem was used as substrate for Kpc-2 and Cefotaxime was used for SHV-5, while changes in absorbance upon hydrolysis of the β-lactam ring were monitored at 300 nm and 260 nm respectively in UV-transparent 96-well microtiter assay plates. Maximum rates of hydrolysis were compared to those in control wells (without inhibitors), and percentages of enzyme inhibition were calculated for each concentration of inhibitor. The concentration of inhibitor needed to reduce the initial rate of hydrolysis of substrate by 50% (IC50) was calculated as the residual activity of β-lactamase at 486 nm using GraFit version 7 kinetics software package (Erithacus Software, Surrey, UK).
(§3) Using the methodology described above, examples of the current invention were evaluated for their ability to inhibit β-lactamase enzymes from all four Ambler classifications (A through D). […] NT=Not tested.

KPC-2 = biological target: T2, KPC-2 (Klebsiella pneumoniae, UniProt Q9F663); experiment: β-lactamase enzyme inhibition, KPC-2; details: substrate imipenem, 300 nm; read-out: Class A KPC-2 IC50
T2 construct: made in house; host or cells: E. coli BL21(DE3)
Protocol: as §1, §2, §3

VIM-2 = biological target: T3, VIM-2 (Escherichia coli, UniProt Q5U7L7); experiment: β-lactamase enzyme inhibition, VIM-2; details: substrate Nitrocefin 100 μM, 486 nm; read-out: Class B VIM-2 IC50
T3 construct: made in house; host or cells: E. coli BL21(DE3)
Protocol: For Vim-2 metallo β-lactamase, the procedure was identical with the following exceptions, first the protein was not pH adjusted to pH 5 with 50 mM sodium acetate, second, the chromatography step was changed to a 5 ml Q sepharose anion exchange column pre-equilibrated with 50 mM Hepes pH 7.5, and elution of the protein was achieved by a linear gradient of NaCl (0-600 mM). Finally, the VIM-2 purification required a second run (3rd step) on the Q sepharose anion exchange column to achieve acceptable purity (>90%).
as §2, §3

p99 AmpC = biological target: T4, p99 AmpC (Enterobacter cloacae, UniProt P05364); experiment: β-lactamase enzyme inhibition, p99 AmpC
T4 construct: made in house; host or cells: E. coli BL21(DE3)
Protocol: as §1, §2, §3

OXA-1 = biological target: T5, OXA-1 (Escherichia coli, UniProt P13661); experiment: β-lactamase enzyme inhibition, OXA-1; details: substrate Nitrocefin 100 μM, 486 nm; read-out: Class D OXA-1 IC50
T5 construct: made in house; host or cells: E. coli BL21(DE3)
Protocol: as §1, §2, §3

SMILES | IC50 (SHV-5) [nM] | IC50 (KPC-2) [nM] | IC50 (VIM-2) [nM] | IC50 (p99 AmpC) [nM] | IC50 (OXA-1) [nM]
CN(C)[C@H]1CC[C@H](CC(=O)N[C@H]2Cc3cccc(C(=O)O)c3OB2O)CC1 [Example 14, (R)-3-(2-(trans-4-(dimethylamino)cyclohexyl)acetamido)-2-hydroxy-3,4-dihydro-2H-benzo[e][1,2]oxaborinine-8-carboxylic acid] | < 100 | < 100 | 100 to 1000 | < 100 | < 100
NCCN[C@H]1CC[C@H](CC(=O)N[C@H]2Cc3cccc(C(=O)O)c3OB2O)CC1 [Example 15, (R)-3-(2-(trans-4-(2-aminoethylamino)cyclohexyl)acetamido)-2-hydroxy-3,4-dihydro-2H-benzo[e][1,2]oxaborinine-8-carboxylic acid] | < 100 | < 100 | < 100 | < 100 | 100 to 1000
O=C(C[C@H]1CC[C@H](N2CCNCC2)CC1)N[C@H]1Cc2cccc(C(=O)O)c2OB1O [Example 16, (R)-2-hydroxy-3-(2-(trans-4-(piperazin-1-yl)cyclohexyl)acetamido)-3,4-dihydro-2H-benzo[e][1,2]oxaborinine-8-carboxylic acid] | < 100 | < 100 | 1000 to 10000 | < 100 | < 100
O=C(C[C@H]1CC[C@@H](N2CCNCC2)CC1)N[C@H]1Cc2cccc(C(=O)O)c2OB1O [Example 17, (R)-2-hydroxy-3-(2-(cis-4-(piperazin-1-yl)cyclohexyl)acetamido)-3,4-dihydro-2H-benzo[e][1,2]oxaborinine-8-carboxylic acid] | 100 to 1000 | < 100 | 1000 to 10000 | < 100 | 100 to 1000
N[C@H]1CC[C@H](CCC(=O)N[C@H]2Cc3cccc(C(=O)O)c3OB2O)CC1 [Example 21, (R)-3-(3-(trans-4-aminocyclohexyl)propanamido)-2-hydroxy-3,4-dihydro-2H-benzo[e][1,2]oxaborinine-8-carboxylic acid] | < 100 | < 100 | 1000 to 10000 | < 100 | < 100
N=C(N)N[C@H]1CC[C@H](CCC(=O)N[C@H]2Cc3cccc(C(=O)O)c3OB2O)CC1 [Example 22, (R)-3-(3-(trans-4-guanidinocyclohexyl)propanamido)-2-hydroxy-3,4-dihydro-2H-benzo[e][1,2]oxaborinine-8-carboxylic acid] | < 100 | < 100 | 100 to 1000 | < 100 | < 100
CN(C)CCN(C)[C@H]1CC[C@H](CC(=O)N[C@H]2Cc3cccc(C(=O)O)c3OB2O)CC1 [Example 23, (R)-3-(2-(trans-4-((2-(dimethylamino)ethyl)(methyl)amino)cyclohexyl)acetamido)-2-hydroxy-3,4-dihydro-2H-benzo[e][1,2]oxaborinine-8-carboxylic acid] | < 100 | < 100 | 100 to 1000 | < 100 | 100 to 1000
N=C(N)NCCN[C@H]1CC[C@H](CC(=O)N[C@H]2Cc3cccc(C(=O)O)c3OB2O)CC1 [Example 25, (R)-3-(2-(trans-4-(2-guanidinoethylamino)cyclohexyl)acetamido)-2-hydroxy-3,4-dihydro-2H-benzo[e][1,2]oxaborinine-8-carboxylic acid] | < 100 | < 100 | < 100 | < 100 | < 100
O=C(C[C@H]1CC[C@H](NCCO)CC1)N[C@H]1Cc2cccc(C(=O)O)c2OB1O [Example 26, (R)-2-hydroxy-3-(2-(trans-4-(2-hydroxyethylamino)cyclohexyl)acetamido)-3,4-dihydro-2H-benzo[e][1,2]oxaborinine-8-carboxylic acid] | < 100 | < 100 | 1000 to 10000 | < 100 | 100 to 1000
O=C(C[C@H]1CC[C@H](NCc2cccnc2)CC1)N[C@H]1Cc2cccc(C(=O)O)c2OB1O [Example 27, (R)-2-hydroxy-3-(2-(trans-4-(pyridin-3-ylmethylamino)cyclohexyl)acetamido)-3,4-dihydro-2H-benzo[e][1,2]oxaborinine-8-carboxylic acid] | < 100 | < 100 | 100 to 1000 | < 100 | < 100
O=C(O)CN[C@H]1CC[C@H](CC(=O)N[C@H]2Cc3cccc(C(=O)O)c3OB2O)CC1 [Example 28, (R)-3-(2-(trans-4-(carboxymethylamino)cyclohexyl)acetamido)-2-hydroxy-3,4-dihydro-2H-benzo[e][1,2]oxaborinine-8-carboxylic acid] | < 100 | < 100 | 1000 to 10000 | < 100 | 100 to 1000
O=C(C[C@H]1CC[C@H](N2C=NCC2)CC1)N[C@H]1Cc2cccc(C(=O)O)c2OB1O [Example 29, (R)-3-(2-(trans-4-(4,5-dihydro-1H-imidazol-1-yl)cyclohexyl)acetamido)-2-hydroxy-3,4-dihydro-2H-benzo[e][1,2]oxaborinine-8-carboxylic acid] | < 100 | < 100 | 100 to 1000 | < 100 | < 100
N=CN[C@H]1CC[C@H](CC(=O)N[C@H]2Cc3cccc(C(=O)O)c3OB2O)CC1 [Example 30, (R)-3-(2-(trans-4-formimidamidocyclohexyl)acetamido)-2-hydroxy-3,4-dihydro-2H-benzo[e][1,2]oxaborinine-8-carboxylic acid] | < 100 | < 100 | 100 to 1000 | < 100 | 100 to 1000
O=C(CC1CCCCC1)N[C@H]1Cc2cccc(C(=O)O)c2OB1O [Example 31, (R)-3-(2-cyclohexylacetamido)-2-hydroxy-3,4-dihydro-2H-benzo[e][1,2]oxaborinine-8-carboxylic acid] | < 100 | < 100 | 1000 to 10000 | < 100 | < 100
O=C(C[C@H]1CC[C@H](NCc2ccccn2)CC1)N[C@H]1Cc2cccc(C(=O)O)c2OB1O [Example 32, (R)-2-hydroxy-3-(2-(trans-4-(pyridin-2-ylmethylamino)cyclohexyl)acetamido)-3,4-dihydro-2H-benzo[e][1,2]oxaborinine-8-carboxylic acid] | < 100 | < 100 | 100 to 1000 | < 100 | < 100
O=C(C[C@H]1CC[C@H](NCC2CCNCC2)CC1)N[C@H]1Cc2cccc(C(=O)O)c2OB1O [Example 33, (R)-2-hydroxy-3-(2-(trans-4-(piperidin-4-ylmethylamino)cyclohexyl)acetamido)-3,4-dihydro-2H-benzo[e][1,2]oxaborinine-8-carboxylic acid] | < 100 | < 100 | 100 to 1000 | < 100 | < 100
N=C(N)N1CCC(CN[C@H]2CC[C@H](CC(=O)N[C@H]3Cc4cccc(C(=O)O)c4OB3O)CC2)CC1 [Example 34, (R)-3-(2-(trans-4-((1-carbamimidoylpiperidin-4-yl)methylamino)cyclohexyl)acetamido)-2-hydroxy-3,4-dihydro-2H-benzo[e][1,2]oxaborinine-8-carboxylic acid] | < 100 | < 100 | 100 to 1000 | < 100 | < 100
